The results in this text go back to patent US9593305B2, “Differentiation of pluripotent stem cells” (Janssen Biotech, Inc., priority 2008, dated 2017).

The structures appear in SMILES notation.

The test system of assay [1] is H1 human embryonic stem cells. Description: Analog screening with GDF-8 and growth factor/agonist pool (Example 8, Tables 7 and 8). Type of assay: cell-based. The protocol:
Briefly, clusters of H1 human embryonic stem cells were grown on reduced growth factor […]™ (Invitrogen; Cat #356231)-coated tissue culture plastic. Cells were passaged using collagenase (Invitrogen; Cat #17104-019) treatment and gentle scraping, washed to remove residual enzyme, and plated with even dispersal at a ratio of 1:1 (surface area) on reduced growth factor […]™-coated 96-well black plates (Packard ViewPlates; PerkinElmer; Cat #6005182) using volumes of 100 μl/well. Cells were allowed to attach as clusters and then recover log phase growth over a 1 to 3 day period, feeding daily with MEF conditioned medium supplemented with 8 ng/ml bFGF (R&D Systems; Cat #233-FB). Plates were maintained at 37° C., 5% CO2 in a humidified box throughout the duration of assay. Growth factors purchased from R&D Systems were EGF (Cat #236-EG), FGF4 (Cat #235-F4), PDGF-A (Cat #221-AA), PDGF-D (Cat #1159-SB), PDGF-A/B (Cat #222-AB). […] Screening was conducted using a library of compounds that were made available as 5 mM stocks in 96-well plate format, solubilized in 100% DMSO (Sigma; Cat #D2650) and stored at −80° C. The compounds were further diluted to an intermediate concentration of 0.2 mM in 50 mM HEPES (Invitrogen; Cat #15630-080), 20% DMSO and stored at 4° C. Test conditions were performed in single wells, feeding on alternate days over a four-day assay period. Primary screening assays were initiated by aspirating culture medium from each well followed by three washes in PBS (Invitrogen; Cat #14190) to remove residual growth factors and serum. On the first day of assay, test volumes of 200 μl per well were added back containing DMEM:F12 base medium (Invitrogen; Cat #11330-032) supplemented with 0.5% FCS (HyClone; […] Cat #1324-WN) plus 2.5 μM compound. All remaining growth factors were tested at a final assay concentration of 50 ng/ml (EGF, FGF4, PDGF-A, PDGF-A/B, VEGF) with the exception of GDF-8 tested at 25 ng/ml. […] Cat #120-14). […] All remaining growth factors were tested at a final assay concentration of 50 ng/ml (EGF, FGF4, PDGF-A, PDGF-A/B, VEGF) with the exception of GDF-8 tested at 25 ng/ml. […] Cat #120-14). Negative control samples contained DMEM:F12 base medium supplemented with 2% FCS. […] At the conclusion of four-days of culture, assay plates were washed twice with PBS (Invitrogen; Cat #14190), fixed with 4% paraformaldehyde (Alexis Biochemical; Cat #ALX-350-011) at room temperature for 20 minutes, then washed three times with PBS and permeabilized with 0.5% Triton X-100 (Sigma; Cat #T8760-2) for 20 minutes at room temperature. Cells were washed again three times with PBS and blocked with 4% chicken serum (Invitrogen; Cat #16110082) in PBS for 30 minutes at room temperature. Primary antibody (goat anti-human SOX17; R&D Systems; Cat #AF1924) was diluted 1:100 in 4% chicken serum and added to each well for one hour at room temperature. Alexa Fluor 488 conjugated secondary antibody (chicken anti-goat IgG; Molecular Probes; Cat #AZ1467) was diluted 1:200 in PBS and added to each sample well after washing three times with PBS. To counterstain nuclei, 4 μg/ml Hoechst 33342 (Invitrogen; Cat #H3570) was added for ten minutes at room temperature. Plates were washed once with PBS and left in 100 μl/well PBS for imaging. Imaging was performed using an IN Cell Analyzer 1000 (GE Healthcare) utilizing the 51008bs dichroic for cells stained with Hoechst 33342 and Alexa Fluor 488. Exposure times were optimized from positive control wells and from untreated negative control wells stained with secondary antibody alone. Images from 15 fields per well were acquired to compensate for any cell loss during the bioassay and subsequent staining procedures. […] Segmentation for the nuclei was determined based on gray-scale levels (baseline range 100-300) and nuclear size. Averages and standard deviations were calculated for each replicate data set. […]

Assay [2] has as its system H1 human embryonic stem cells. The assay is described as follows: Analogue screening in combination with only GDF-8, SOX17 (Example 21, Tables 18 and 19). Particulars: compound in combination with GDF8; for Cell Number: Average Total Cell Number / Sox17 Expression: Average Total Intensity: four assay plates; for Cell Number: % of positive control / Sox17 Expression: % of positive control: relative to Activin A/Wnt3a of the same plate. Type of assay: cell-based. The arrangement: Sox17 Expression: % of positive control / Cell Number: % of positive control: tested at 2.5 µM. The protocol:
Briefly, clusters of H1 human embryonic stem cells were grown on reduced growth factor Matrigel™ (Invitrogen; Cat #356231)-coated tissue culture plastic. Cells were passaged using collagenase (Invitrogen; Cat #17104-019) treatment and gentle scraping, washed to remove residual enzyme, and plated with even dispersal at a ratio of 1:1 (surface area) on reduced growth factor […]™ (BD Biosciences; Cat #356231)-coated 96-well black plates (Packard ViewPlates; PerkinElmer; Cat #6005182) using volumes of 100 μl/well. Cells were allowed to attach and then recover log phase growth over a 1 to 3 day time period, feeding daily with MEF conditioned medium supplemented with 8 ng/ml bFGF (R&D Systems; Cat #233-FB). Plates were maintained at 37° C., 5% CO2 in a humidified box throughout the duration of assay.
Screening was conducted using a library of the analogue compounds. Compounds from this library were made available as 5 mM stocks in 96-well plate format, solubilized in 100% DMSO (Sigma; Cat #D2650) and stored at −80° C. The library compounds were further diluted to an intermediate concentration of 0.2 mM in 50 mM HEPES (Invitrogen; Cat #15630-080), 20% DMSO and stored at 4° C. Test conditions were performed in triplicate, feeding on alternating days over a four-day assay period. Assays were initiated by aspirating culture medium from each well followed by three washes in PBS (Invitrogen; Cat #14190) to remove residual growth factors. On the first day of assay, test volumes of 200 μl per well were added to each well using DMEM:F12 base medium (Invitrogen; Cat #11330-032) supplemented with 0.5% FCS (HyClone; Cat #SH30070.03) and 200 ng/ml GDF-8 (R&D Systems, Cat #788-G8) plus 2.5 μM compound. On the third day of assay, test volumes of 100 μl per well were added to each well using DMEM:F12 base medium supplemented with 2% FCS plus 200 ng/ml GDF-8 (R&D Systems, Cat #788-G8). Positive control samples contained the same base medium supplemented with FCS and 1000 ng/ml recombinant human activin A (PeproTech; Cat #120-14) throughout the four-day assay along with Wnt3a (20 ng/ml) on days 1 and 2. Negative control samples contained DMEM:F12 base medium supplemented with FCS, adding Wnt3a on days 1 and 2 but omitting treatment with activin A.
At the conclusion of four-days of culture, assay plates were washed twice with PBS (Invitrogen; Cat #14190), fixed with 4% paraformaldehyde (Alexis Biochemical; Cat #ALX-350-011) at room temperature for 20 minutes, then washed three times with PBS and permeabilized with 0.5% Triton X-100 (Sigma; Cat #T8760-2) for 20 minutes at room temperature. Cells were washed again three times with PBS and blocked with 4% chicken serum (Invitrogen; Cat #16110082) in PBS for 30 minutes at room temperature. Primary antibody (goat anti-human SOX17; R&D Systems; Cat #AF1924) was diluted 1:100 in 4% chicken serum and added to each well for one hour at room temperature. Alexa Fluor 488 conjugated secondary antibody (chicken anti-goat IgG; Molecular Probes; Cat #AZ1467) was diluted 1:200 in PBS and added to each sample well after washing three times with PBS. To counterstain nuclei, 4 μg/ml Hoechst 33342 (Invitrogen; Cat #H3570) was added for ten minutes at room temperature. Plates were washed once with PBS and left in 100 μl/well PBS for imaging.
Imaging was performed using an IN Cell Analyzer 1000 (GE Healthcare) utilizing the 51008bs dichroic for cells stained with Hoechst 33342 and Alexa Fluor 488. Exposure times were optimized from positive control wells and from untreated negative control wells stained with secondary antibody alone. Images from 15 fields per well were acquired to compensate for any cell loss during the bioassay and subsequent staining procedures. Measurements for total cell number and total SOX17 intensity were obtained from each well using IN Cell Developer Toolbox 1.7 (GE Healthcare) software. […]

[3] abbreviates: Plate 1, compound + EGF, FGF, PDGF-A, VEGF, PDGF-D, muscimol, GDF8.
[4] abbreviates: Plate 1, compound + EGF, FGF, PDGF-A, VEGF, PDGF-D, muscimol, GDF8, positive control Activin A/Wnt3a.
Where [5] appears, read: Table 8: hits with greater than 25% activity of the positive control, with GDF-8 and growth factors/agonists.
[6] abbreviates: Plate 2, compound + EGF, FGF, PDGF-A, VEGF, PDGF-D, muscimol, GDF8.
Where [7] appears, read: Plate 2, compound + EGF, FGF, PDGF-A, VEGF, PDGF-D, muscimol, GDF8, positive control Activin A/Wnt3a.

As for `O=C1CCN2CCN(CC2)Cc2cc(Cl)cc(c2)Nc2ncnc(n2)-c2ccc(F)c(c2)CCCN1` [Compound 24, 5-Chloro-17-fluoro-1,8,10,12,22,26,32-heptaazapentacyclo[24.2.2.1˜3,7˜0.1˜9,13˜0.1˜14,18˜]tritriaconta-3(33), 4,6,9(32), 10,12,14(31), 15,17-nonaen-23-one], in assay [1] (setting [3]), the “Cell Number, Average Total Cell Number” value was found to be 12714 and the “Sox17 Expression, Average Total Intensity” value is 2.46E+08. Further, in assay [1] (setting [4]), the “Cell Number, % of positive control” value is given as 94.9 % of positive control and the “Sox17 Expression, % of positive control” value was 98.2 % of positive control. In assay [1] (setting [5]), the “Cell Number, % of positive control” value was 94.9 % of positive control; the “Sox17 Expression, % of positive control” value was 98.2 % of positive control; the “Sox17 Expression, Average Total Intensity” value is 2.46E+08. In assay [2], the “Cell Number: Average Total Cell Number” value came out at 5012, the “Sox17 Expression: Average Total Intensity” value stood at 2.64E+07, the “Cell Number: % of positive control” value is recorded as 33.4% and the “Sox17 Expression: % of positive control” value was 7.7%.

Turning to `CN1CCCc2cccc(c2)-c2ncnc(n2)Nc2cccc(c2)CCNC(=O)C1` [Compound 28, 18-Methyl-3,5,7,15,18,28-hexaazatetracyclo[20.3.1.1˜2,6˜0.1˜8,12˜]octacosa-1(26), 2(28), 3,5,8(27), 9,11,22,24-nonaen-16-one], in assay [1] (setting [6]), the “Cell Number, Average Total Cell Number” value is given as 7591 and the “Sox17 Expression, Average Total Intensity” value is given as 8.77E+07. Further, in assay [1] (setting [7]), the “Cell Number, % of positive control” value was 48.0 % of positive control and the “Sox17 Expression, % of positive control” value is reported as 30.7 % of positive control. In addition, in assay [1] (setting [5]), the “Cell Number, % of positive control” value is listed as 48.0 % of positive control; the “Sox17 Expression, % of positive control” value is reported as 30.7 % of positive control; the “Sox17 Expression, Average Total Intensity” value was found to be 8.77E+07. Besides, in assay [2], the “Cell Number: Average Total Cell Number” value is given as 5236, the “Sox17 Expression: Average Total Intensity” value is 4.03E+07, the “Cell Number: % of positive control” value is given as 37.5% and the “Sox17 Expression: % of positive control” value was 13.1%.

In the case of `CN1CCCC(=O)NCCc2cccc(c2)Nc2ncnc(n2)-c2cccc(c2)CCC1` [Compound 33, 20-Methyl-3,5,7,15,20,30-hexaazatetracyclo[22.3.1.1˜2,6˜0.1˜8,12˜]triaconta-1(28), 2(30), 3,5,8(29), 9,11,24,26-nonaen-16-one], in assay [1] (setting [6]), the “Cell Number, Average Total Cell Number” value was 7485 and the “Sox17 Expression, Average Total Intensity” value was 8.10E+07. In assay [1] (setting [7]), the “Cell Number, % of positive control” value was 47.4 % of positive control and the “Sox17 Expression, % of positive control” value is on record as 28.3 % of positive control. In assay [1] (setting [5]), the “Cell Number, % of positive control” value is 47.4 % of positive control; the “Sox17 Expression, % of positive control” value is 28.3 % of positive control; the “Sox17 Expression, Average Total Intensity” value was determined as 8.10E+07. In addition, in assay [2], the “Cell Number: Average Total Cell Number” value was 2362, the “Sox17 Expression: Average Total Intensity” value turned out to be 6.60E+06, the “Cell Number: % of positive control” value is 15.4% and the “Sox17 Expression: % of positive control” value is on record as 2.0%.
